Measured values from patent publication US9795646B2, “Boswellia oil, its fractions and compositions for enhancing brain function” (LAILA NUTRACEUTICALS, priority 2010, dated 2017).

Columns and labels:
Assay type in all cases: cell-based
[1] = molecular target: T1, acetylcholine esterase (AChE) (Rattus norvegicus, UniProt P37136); test: Acetylcholine esterase inhibitory activity in β-amyloid peptide induced PC 12 cells; conditions: Beta Amyloid induced PC12 cells, Table 8
T1 construct: The cell extracts were used as samples for measuring the acetylcholine esterase (AChE) activity; endogenous in cells; host or cells: rat pheochromocytoma PC 12 cells, induced with β-amyloid peptide
T1 sequence (P37136 32-614): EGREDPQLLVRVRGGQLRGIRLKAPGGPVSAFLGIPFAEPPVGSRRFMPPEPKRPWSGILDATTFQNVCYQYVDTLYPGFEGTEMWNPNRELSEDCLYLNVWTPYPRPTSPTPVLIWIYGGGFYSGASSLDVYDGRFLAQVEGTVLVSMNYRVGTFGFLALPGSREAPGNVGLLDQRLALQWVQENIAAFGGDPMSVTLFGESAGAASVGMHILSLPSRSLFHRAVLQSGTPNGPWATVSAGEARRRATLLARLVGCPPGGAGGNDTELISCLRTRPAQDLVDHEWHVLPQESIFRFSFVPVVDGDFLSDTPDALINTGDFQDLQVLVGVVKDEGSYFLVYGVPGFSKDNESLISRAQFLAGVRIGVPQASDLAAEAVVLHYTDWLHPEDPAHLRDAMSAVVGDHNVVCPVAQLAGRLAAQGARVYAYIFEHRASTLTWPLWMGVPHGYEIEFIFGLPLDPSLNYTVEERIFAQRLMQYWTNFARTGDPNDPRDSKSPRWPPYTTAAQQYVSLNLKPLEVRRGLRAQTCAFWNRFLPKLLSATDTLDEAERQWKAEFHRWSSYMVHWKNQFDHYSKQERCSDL
Description: As a part of developing new agents for improving brain/mental function and alleviating disease conditions related to cognition and memory deficits, a large number of plant extracts have been screened for their inhibitory property on Acetylcholinesterase enzyme activity. The assay was performed in vitro by the method of Ellman et al., with minor modifications, using acetylthiocholine iodide as a substrate (Lee J. H., et. al. Arch Pharm Res 2004, 27(1): 53-56). […] Its acetylcholinesterase inhibitory activity was also evaluated by a cell based in vitro assay in Rat pheochromocytoma PC 12 cells. […] Rat pheochromocytoma PC 12 cells were equally distributed with phenol red free Dulbecco's modified Eagle's red medium (DMEM) (Sigma Life Science, USA) containing 10% fetal bovine serum (FBS) in 24-well plate. […] Thereafter, cells were induced with 1 μg/mL of β-amyloid peptide (Calbiochem, USA) for 24 h at 37° C. After 24 h, cells were collected and washed twice with 1×PBS by centrifugation at 1200 rpm for 5 min at 4° C. The cell extracts were prepared in solubilization buffer and the cell lysates were analyzed for acetylcholine esterase (AChE) activity.
The inhibitory property on the enzyme activity was assessed in β-amyloid peptide induced-rat pheochromocytoma PC 12 cells. Rat pheochromocytoma PC 12 cells were equally distributed with phenol red free Dulbecco's modified Eagle's red medium (DMEM) (Sigma Life Science, USA) containing 10% fetal bovine serum (FBS) in 24-well plate. […] Thereafter, cells were induced with 1 μg/mL of β-amyloid peptide (Calbiochem, USA) for 24 h at 37° C. After 24 h, cells were collected and washed twice with 1×PBS by centrifugation at 1200 rpm for 5 min at 4° C. Cell extracts were prepared in solubilization buffer (10 mM Tris, pH 7.2; 100 mM NaCl, 50 mM MgCl2, 1% Triton X-100). The cell extracts were used as samples for measuring the acetylcholine esterase (AChE) activity.
Cell extract samples (100 μl) were dispensed into each well of 96-well microtitre plate. Fifty micro liters of DTNB (Dithiobisnitro benzoate) solution was added to each well and incubated for 5 min at room temperature. After incubation, 50 μl of acetyl choline iodide solution was added to each well and absorbance was read immediately at 405 nm for 12 min at 2 min intervals. A standard curve was constructed by using serial concentrations of acetyl cholinesterase (0-100 mU). Total protein present in 100 μl aliquot of cell extract was calculated by Bradford method and the enzyme activity was normalized and expressed as unit activity per milligram of protein.

[2] = tested on: IMR32 human neuroblastoma cells; test: MTT cell proliferation assay, protection from oxidative stress induced cytotoxic damage; conditions: vehicle control 100.00, H2O2 alone 78.71
Description: Briefly, IMR32 human neuroblastoma cells were cultivated in Dulbecco's modified Eagle's red medium (DMEM) (Sigma Life Science, USA) containing 10% fetal bovine serum (FBS). Equal number of IMR32 cells was seeded in to each well of 96 well microplate and incubated at 37° C. with 5% CO2. […] Control wells were supplemented with 0.05% DMSO. After 72 h of treatment, equal volume of MTT reagent (R&D Systems, USA) was added to each well and incubated for 4 h. Thereafter, 50 μl of solublization buffer (R&D Systems, USA) was added to each well to solubilize the colored formazan crystals produced by the reduction of MTT. After 24 h, the optical density was measured at 550 nm using microplate reader (Bio-Rad, USA). In each assay, the vehicle control and the treatments were done in quadruplicates. The average OD obtained in the vehicle control wells is considered as the cell proliferation index of 100.

[3] = tested on: RAW 264.7 mouse macrophages; test: Assay for measuring reactive oxygen species (ROS), DCFH-DA, H2O2; conditions: H2O2 treated RAW 264.7 cells
Description: Formation of ROS was measured using of the fluorescent probe DCFH-DA. The method is based on the incubation of the RAW 264.7 mouse macrophages with DCFH-DA, which diffuses passively through the cellular membrane. Intracellular esterase activity results in the formation of DCFH, which emits fluorescence when oxidized to 20, 70-dichlorofluorescein (DCF). Briefly, the cells (final concentration 2×10^6/ml suspension) were incubated with DCFH-DA ([…]) in HEPES-buffered (20 mM) HBSS (CaCl2 1.26 mM, KCL 5.37 mM, KH2PO4 0.44 mM; MgCl2
0.49 mM, MgSO4 0.41 mM, NaCl 140 mM, NaHCO3 4.17 mM, Na2HPO4 0.34 mM) with glucose (5 mM) at 37° C. for 15 min. Following centrifugation, the extracellular buffer with DCFH-DA was exchanged with fresh buffer and the suspension was mixed gently. […] Fluorescence was recorded using excitation wavelength 485 nm, emission wavelength 530 nm in a Modulus luminescence spectrometer (Turner Biosystems, USA) for 120 min. Results are calculated as area under the curve (AUC) and the percentage of inhibition of intracellular ROS generation was calculated from the cultures treated with H2O2.

COc1c(O)cc2oc3cc(O)c(CC=C(C)C)c(O)c3c(=O)c2c1CC=C(C)C [α-mangostin]
% inhibition in Acetylcholinesterase (AChE) activity ([1]; 100 ng/ml): 26.83% | % inhibition in Acetylcholinesterase (AChE) activity ([1]; 250 ng/ml): 29.48% | Cell proliferation Index ([2]; 10 ng/ml with 250 uM H2O2, 72 h): 80.32 | Cell proliferation Index ([2]; 25 ng/ml with 250 uM H2O2, 72 h): 86.78 | Cell proliferation Index ([2]; 50 ng/ml with 250 uM H2O2, 72 h): 87.21 | Cell proliferation Index ([2]; 100 ng/ml with 250 uM H2O2, 72 h): 91.78 | Inhibition of Reactive Oxygen Species (ROS) generation (IC50) [3]: 49.817 µg/mL
